Measurements taken from US8685925B2, “Method and compositions for treating stroke with fever” (Nono Inc., priority 2006, dated 2014).
Where two headings read alike, the source gives them in different places. No end group written: not given here.

Assays:
[1] = system: Sprague-Dawley rats; assay type: in vivo, rat
Description: (§1) The peptides were prepared daily from lyophilized powder by dissolving them in normal saline to the final desired concentration. They were administered intravenously via a slow (4-5 min) injection by individuals blinded to the treatment group.
(§2) Experiments were performed in male adult Sprague-Dawley rats weighing 250-300 g (Charles River Laboratory, Canada). All procedures conformed to guidelines established by the Canadian Council on Animal Care and with the approval of the University Health Network animal care committee. All animals were housed in groups of 1-2 animals in cages with free access to food and water and in rooms having an ambient temperature of 20±1° C. and 12:12 hr light/dark cycle.
(§3) Each animal was weighed and then anesthesia was induced. For the permanent pial vessel occlusion model, rats were anesthetized with ketamine (100 mg/kg), acepromazine (2 mg/kg), and xylazine (50 mg/kg), supplemented with one third the initial dose as required. For the two permanent middle cerebral artery occlusion (pMCAO) studies, anesthesia was induced with 3.5% halothane in a mixture of nitrous oxide and oxygen (Vol. 2:1) and maintained with 0.8% halothane in the mixture. Rats were endotracheally intubated and mechanically ventilated (60 strokes/min, tidal volume of […]). A rectal temperature probe was inserted. Polyethylene catheters (PE-50) were introduced into the left femoral artery and vein for blood pressure recording, blood sampling, and drug injection. Mean arterial blood pressure was measured with the use of an indwelling femoral arterial catheter connected to a pressure transducer and was recorded continuously. Serial measurements were made of arterial blood gases, pH, and blood glucose.
The left middle cerebral artery was occluded by the intraluminal suture method described by Longa (1989). In brief, the left common carotid artery (CCA) was exposed through a midline neck incision and was dissected free from surrounding nerves and fascia, from its bifurcation to the base of the skull. The occipital artery branches of the external carotid artery (ECA) were then isolated, and these branches were dissected and coagulated. The ECA was dissected further distally and coagulated along with the terminal lingual and maxillary artery branches, which were then divided. The internal carotid artery (ICA) was isolated and carefully separated from the adjacent vagus nerve, and the pterygopalatine artery was ligated close to its origin. The tip of a 4-cm length of 3-0 monofilament nylon suture (Harvard Apparatus) was rounded by burning to achieve a tip diameter of 0.33-0.36 mm and tip length of 0.5-0.6 mm and coated with poly-L-lysine (Belayev et al., 1996). The suture was introduced through the CCA and advanced into the ICA and thence into the circle of Willis (about 18-20 mm from the carotid bifurcation), effectively occluding the middle cerebral artery. The silk suture around the CCA was tightened around the intraluminal nylon suture to secure it and permanently occlude the middle cerebral artery. Sham operated animals underwent the identical surgical procedure, including permanent ligation of the CCA, but without suture insertion to occlude the MCA. The pMCAO procedure was considered to be adequate if the animal's neurobehavioral score (below) exceeded 10 at 2 h after pMCAO. Animals were allowed to recover from anesthesia at room temperature.
At 24 h after pMCAO the animals were deeply anaesthetized employing halothane inhalation and the brains were quickly removed, sliced into 8 standard coronal sections, and incubated for 30 min in 2% triphenyltetrazolium chloride (TTC; Sigma, St. Louis, USA) in saline at 37° C. […] Each section was digitally photographed, and the infarcts were then traced onto templates representing the 8 standardized coronal slices. The use of the templates corrects for any brain edema produced by the infarct, allowing for a more accurate determination of infarct volume. […]

[2] = system: Sprague-Dawley rats; assay: Physiological parameters in the pMCAO studies (body weight, MABP, blood gases, pH); assay type: in vivo, rat; settings: for pH: arterial blood; for pH / MABP / pCO2 / pO2: first line, time not given
Description: as §3

[3] = target: PSD-95 (Homo sapiens, UniProt P78352); settings: Kornau, 1995; Aarts, 2002; cited from earlier work
Sequence of PSD-95 (P78352 whole entry, species assumed): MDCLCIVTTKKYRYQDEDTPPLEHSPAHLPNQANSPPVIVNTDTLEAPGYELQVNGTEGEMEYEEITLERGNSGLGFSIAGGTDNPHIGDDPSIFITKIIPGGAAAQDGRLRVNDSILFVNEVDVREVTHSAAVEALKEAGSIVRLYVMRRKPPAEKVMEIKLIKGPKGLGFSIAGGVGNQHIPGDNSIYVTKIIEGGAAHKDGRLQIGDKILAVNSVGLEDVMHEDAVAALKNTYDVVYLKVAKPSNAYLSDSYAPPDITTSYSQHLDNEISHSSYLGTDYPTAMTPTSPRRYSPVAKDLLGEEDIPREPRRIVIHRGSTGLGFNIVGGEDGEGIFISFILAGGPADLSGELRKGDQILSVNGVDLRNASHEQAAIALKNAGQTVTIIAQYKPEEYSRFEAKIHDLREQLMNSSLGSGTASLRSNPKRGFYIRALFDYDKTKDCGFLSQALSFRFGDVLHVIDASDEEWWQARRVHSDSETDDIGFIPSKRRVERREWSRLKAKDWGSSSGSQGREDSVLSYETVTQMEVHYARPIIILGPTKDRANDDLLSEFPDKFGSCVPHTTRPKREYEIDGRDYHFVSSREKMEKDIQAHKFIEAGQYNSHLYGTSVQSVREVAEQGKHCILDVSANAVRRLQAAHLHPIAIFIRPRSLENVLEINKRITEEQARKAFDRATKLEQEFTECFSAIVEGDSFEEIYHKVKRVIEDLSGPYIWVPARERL

[4] = system: Sprague-Dawley rats; assay: Core temperature after sham procedure with peptide injection; assay type: in vivo, rat; settings: single i.v. injection of 3 nMole/g
Description: A day prior to undergoing ischemia, the animals were implanted with intraperitoneal transmitters (E-Mitter; Mini Mitter/Respironics, Oregon, USA) permitting core temperature (CT) and activity monitoring. Monitoring was performed continuously from 20 hours before, to 24 hours after, the pMCAO (Mini-Mitter VitalView telemetric monitoring software; Mini Mitter/Respironics, Oregon, USA). During the animal surgery the animals were away from the telemetric receivers, so CT was measured with a rectal probe and maintained at 36.5° C. to 37.5° C. using a heating lamp or homeothermic blanket. […] Temporalis muscle temperatures were measured with the same thermocouple probe inserted into the muscle through an 18 gauge needle. Cage temperatures were continuously recorded using an external temperature probe and software (Tektronix WaveStar software; Tektronix, Texas, USA) running on a digital oscilloscope and a separate computer. […]
Previous experience has shown that the neuroprotective effects of some anti-ischemic drugs might have been, at least in part, related to drug-induced hypothermia (e.g., MK-801; Corbett, 1990). […] To determine whether PSD-95 inhibition affected core temperature (CT), it was measured in rats (n=6) implanted with telemetric intra-peritoneal temperature monitors. […]

[5] = system: Sprague-Dawley rats; assay type: in vivo, rat; settings: pial vessel occlusion study
Description: as §1, §2
Each animal was weighed and then anesthesia was induced. For the permanent pial vessel occlusion model, rats were anesthetized with ketamine (100 mg/kg), acepromazine (2 mg/kg), and xylazine (50 mg/kg), supplemented with one third the initial dose as required. For the two permanent middle cerebral artery occlusion (pMCAO) studies, anesthesia was induced with 3.5% halothane in a mixture of nitrous oxide and oxygen (Vol. 2:1) and maintained with 0.8% halothane in the mixture. […] Mean arterial blood pressure was measured with the use of an indwelling femoral arterial catheter connected to a pressure transducer and was recorded continuously. […]

With YGRKKRRQRRRKLSSIETDV [Tat-NR2B9c(TDV)] the “Post-op Deaths” value ([1]; pMCAO study #1, 0.3 nMole/g) was 0, the “Post-op Deaths” value ([1]; pMCAO study #1, 3.0 nMole/g) was 0 and the “Post-op Deaths” value ([1]; pMCAO study #2, 0.3 nMole/g) was 2. For the same sequence, the “Post-op Deaths” value ([1]; pMCAO study #2, 3.0 nMole/g) was 3, the “MABP 10 min” value ([2]; 1st study, 0.3 nmol/g) was 121.44 ± 5.23 mmHg and the “pCO2 10 min” value ([2]; 1st study, 0.3 nmol/g) was 39.33 ± 0.73 mmHg. The “pH 10 min” value ([2]; 1st study, 0.3 nmol/g) was 7.44 ± 0.01, the “pO2 10 min” value ([2]; 1st study, 0.3 nmol/g) was 124.22 ± 6.34 mmHg and the “MABP 70 min” value ([2]; 1st study, 0.3 nmol/g) was 129.44 ± 6.54 mmHg. The “pCO2 70 min” value ([2]; 1st study, 0.3 nmol/g) was 38.67 ± 0.93 mmHg, the “pH 70 min” value ([2]; 1st study, 0.3 nmol/g) was 7.41 ± 0.01 and the “pO2 70 min” value ([2]; 1st study, 0.3 nmol/g) was 137.67 ± 4.75 mmHg. The pH ([2]; 1st study, 0.3 nmol/g) was 7.42 ± 0.02, the MABP ([2]; 1st study, 0.3 nmol/g) was 126.00 ± 5.54 mmHg and the pCO2 ([2]; 1st study, 0.3 nmol/g) was 38.11 ± 0.81 mmHg. For the same sequence, the pO2 ([2]; 1st study, 0.3 nmol/g) was 131.44 ± 9.11 mmHg, the “MABP 10 min” value ([2]; 1st study, 3 nmol/g) was 140.63 ± 7.64 mmHg and the “pCO2 10 min” value ([2]; 1st study, 3 nmol/g) was 40.25 ± 0.99 mmHg. The “pH 10 min” value ([2]; 1st study, 3 nmol/g) was 7.43 ± 0.01, the “pO2 10 min” value ([2]; 1st study, 3 nmol/g) was 136.00 ± 2.57 mmHg and the “MABP 70 min” value ([2]; 1st study, 3 nmol/g) was 102.13 ± 2.39 mmHg. For the same sequence, the “pCO2 70 min” value ([2]; 1st study, 3 nmol/g) was 40.38 ± 0.84 mmHg, the “pH 70 min” value ([2]; 1st study, 3 nmol/g) was 7.40 ± 0.01 and the “pO2 70 min” value ([2]; 1st study, 3 nmol/g) was 132.25 ± 4.65 mmHg. For the same sequence, the pH ([2]; 1st study, 3 nmol/g) was 7.44 ± 0.01, the MABP ([2]; 1st study, 3 nmol/g) was 123.63 ± 6.27 mmHg and the pCO2 ([2]; 1st study, 3 nmol/g) was 39.75 ± 0.70 mmHg. For the same sequence, the pO2 ([2]; 1st study, 3 nmol/g) was 130.63 ± 6.24 mmHg, the “MABP 10 min” value ([2]; 2nd study, 0.3 nmol/g) was 140.50 ± 4.69 mmHg and the “pCO2 10 min” value ([2]; 2nd study, 0.3 nmol/g) was 42.75 ± 0.59 mmHg. For the same sequence, the “pH 10 min” value ([2]; 2nd study, 0.3 nmol/g) was 7.38 ± 0.01, the “pO2 10 min” value ([2]; 2nd study, 0.3 nmol/g) was 132.00 ± 4.92 mmHg and the “MABP 70 min” value ([2]; 2nd study, 0.3 nmol/g) was 129.25 ± 8.09 mmHg. The “pCO2 70 min” value ([2]; 2nd study, 0.3 nmol/g) was 41.75 ± 1.13 mmHg, the “pH 70 min” value ([2]; 2nd study, 0.3 nmol/g) was 7.41 ± 0.01 and the “pO2 70 min” value ([2]; 2nd study, 0.3 nmol/g) was 121.00 ± 4.39 mmHg. It also gave a pH ([2]; 2nd study, 0.3 nmol/g) of 7.38 ± 0.02, an MABP ([2]; 2nd study, 0.3 nmol/g) of 119.00 ± 4.11 mmHg and a pCO2 ([2]; 2nd study, 0.3 nmol/g) of 39.25 ± 1.06 mmHg. For the same sequence, the pO2 ([2]; 2nd study, 0.3 nmol/g) was 133.13 ± 5.15 mmHg, the “pCO2 10 min” value ([2]; 2nd study, 3 nmol/g) was 37.50 ± 0.80 mmHg and the “pH 10 min” value ([2]; 2nd study, 3 nmol/g) was 7.38 ± 0.02. The “pO2 10 min” value ([2]; 2nd study, 3 nmol/g) was 120.13 ± 6.53 mmHg, the “MABP 70 min” value ([2]; 2nd study, 3 nmol/g) was 130.25 ± 12.26 mmHg and the “pCO2 70 min” value ([2]; 2nd study, 3 nmol/g) was 40.88 ± 1.42 mmHg. For the same sequence, the “pH 70 min” value ([2]; 2nd study, 3 nmol/g) was 7.39 ± 0.02, the “pO2 70 min” value ([2]; 2nd study, 3 nmol/g) was 124.63 ± 4.44 mmHg and the pH ([2]; 2nd study, 3 nmol/g) was 7.41 ± 0.01. It also gave an MABP ([2]; 2nd study, 3 nmol/g) of 124.13 ± 6.29 mmHg, a pCO2 ([2]; 2nd study, 3 nmol/g) of 38.63 ± 1.05 mmHg and a pO2 ([2]; 2nd study, 3 nmol/g) of 141.13 ± 10.44 mmHg.

For “KLSSIEADA [NR2B(ADA), reference compound]”, the “binding to PSD-95” value [3] is given as “incapable of binding PSD-95”.

For YGRKKRRQRRRKLSSIESDV [Tat-NR2B9c(SDV)], the “difference in core temperature versus sham (vehicle) animals” value ([4]; 20 h before until 24 h after) was “no differences in CT at any time point”, the “increase in core temperature after termination of anesthesia” value ([4]; no ischemia, n=6) was roughly 0.5 °C and the “Post-op Deaths” value ([5]; 0.3 nMole/g) was 0. For the same sequence, the “Post-op Deaths” value ([5]; 3.0 nMole/g) was 0, the “Post-op Deaths” value ([1]; pMCAO study #1, 0.3 nMole/g) was 1/1 and the “Post-op Deaths” value ([1]; pMCAO study #1, 3.0 nMole/g) was 1. The “Post-op Deaths” value ([1]; pMCAO study #2, 0.3 nMole/g) was 1/1.

For “KLSSIETDV (PL protein motif) [NR2B9c(TDA)]”, the “binding to PSD-95” value [3] is given as “interacts with the PDZ2 domain of PSD-9S”.
